Data: PMC12120773, “SIRT4 Promotes Pancreatic Cancer Stemness by Enhancing Histone Lactylation and Epigenetic Reprogramming Stimulated by Calcium Signaling” (Advanced Science, 2025)

Tests used:
[1] = target: T1, ENO1 (Enolase 1, α isoform of enolase) (Homo sapiens, UniProt P06733, K358Q); assay: SPR steady-state affinity (Biacore T200, CM5 chip); assay type: binding
T1 construct: recombinant protein expressed in E. coli (printed for the mutants), amine-coupled to CM5 chip

[2] = target: T2, ENO1 (Enolase 1, α isoform of enolase) (Homo sapiens, UniProt P06733, K358R); assay: SPR steady-state affinity (Biacore T200, CM5 chip); assay type: binding
T2 construct: recombinant protein expressed in E. coli (printed for the mutants), amine-coupled to CM5 chip
T2 sequence (P06733 2-434 K358R): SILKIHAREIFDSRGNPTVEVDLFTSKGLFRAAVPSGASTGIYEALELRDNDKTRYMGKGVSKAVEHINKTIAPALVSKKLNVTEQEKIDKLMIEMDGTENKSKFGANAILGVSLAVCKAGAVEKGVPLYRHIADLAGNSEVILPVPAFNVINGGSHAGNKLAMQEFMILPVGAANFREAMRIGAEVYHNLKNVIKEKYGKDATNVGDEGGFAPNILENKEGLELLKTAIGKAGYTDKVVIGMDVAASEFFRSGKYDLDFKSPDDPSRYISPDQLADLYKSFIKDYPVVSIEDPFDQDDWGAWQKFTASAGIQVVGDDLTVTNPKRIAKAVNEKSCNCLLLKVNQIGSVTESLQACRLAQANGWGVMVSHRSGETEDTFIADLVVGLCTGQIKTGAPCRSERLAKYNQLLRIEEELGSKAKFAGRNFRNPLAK

T1 sequence (P06733 2-434 K358Q): as the sequence (P06733 2-434 K358R) above, with R357Q counted along it

- Kd [1]: 17.7 µM
- Kd [2]: 2.61 µM
SMILES: O=C(O)[C@@H](CO)OP(=O)(O)O [2‐PG]
